Like-named read-outs stand apart in the source and are kept apart here.
Experiments:
[1] = tested on: HCT116 MTAP null cells; test: HCT116 MTAP null cell line proliferation (CellTiter-Glo cell viability, 6 days); type: cell-based; settings: HCT116 MTAP null cells, 6 days of treatment, CellTiter-Glo cell viability, read-out: HCT-116 MTAP null IC50
Experimental: (§1) To assess selective anti-proliferative activity of compounds of the invention in cells that have loss expression of MTAP, an HCT-116 isogenic cell line pair was utilized where one cell line was engineered to genetically knockout both MTAP alleles. Cell viability was then assessed in both the parent HCT-116 cell line and the MTAP null cell line after 6 days of treatment with compounds of the present invention. Selective anti-proliferative activity in the MTAP null cell line indicates MTA-cooperative inhibition of PRMT5 and ability to inhibit growth of cancer cells that have loss of MTAP.
(§2) HCT116 MTAP null and WT cells were seeded in 96-well tissue culture plates in RPMI 1640 media+10% fetal bovine serum. Plates were incubated overnight at 37° C. and 5% CO2. Cells were then treated with an 8- or 9-point serial dilution of compound, using a top concentration of 1, or 10 μM, 1:3 serial dilution steps and, a DMSO-only control. Cells were incubated in the presence of drug for 6 days. Effects on cell viability were measured with the CellTiter-Glo® Luminescent Cell Viability Assay (Promega) per manufacturer's recommendation. Assay plates were read on an EnVision™ Multilabel Reader using the Ultra-Sensitive luminescence module. IC50 values were calculated with GraphPad Prism v 5.01 using symmetrical sigmoidal dose-response least squares fit with Hill slope fixed to −1 and top constrain to 100% or GeneData Screener using a 4-parameter logistic model to fit dose response curves.
(§3) Alternatively, compounds could be assayed with a 384 well plate format:
(§4) Compounds were pre-spotted into 384 well plates with a 22-point serial dilution of compound, using a top concentration of 10 or 50 μM, 1:2 serial dilution steps and, a DMSO-only control. HCT116 MTAP null and WT cells were then seeded as above and after 6 days effects on cell viability were measured with the CellTiter-Glo® Luminescent Cell Viability Assay (Promega). Assay plates were read as above and IC50 values were calculated with GeneData Screener using a 4-parameter logistic model to fit dose response curves. The reported IC50 represents the value where the curve transits 50% of control.

[2] = tested on: HCT116 WT cells; test: HCT116 WT cell line proliferation (CellTiter-Glo cell viability, 6 days); type: cell-based; settings: HCT116 WT (parent) cells, 6 days of treatment, CellTiter-Glo cell viability, read-out: HCT-116 WT IC50
Experimental: as §1, §2, §3, §4

SMILES | IC50 ([1]; HCT116-MTAP null, 144 h) [µM] | IC50 ([2]; Homo sapiens, HCT-116, 144 h) [µM] | IC50 [1] [µM] | IC50 [2] [µM]
Cn1ncc2c(N)nc3cc(C(F)(F)F)c(C(=O)N4CCOC[C@@H]4c4ccc(C(F)(F)F)cc4)cc3c21 [Example 548, (4-amino-1-methyl-7-(trifluoromethyl)-1H-pyrazolo[4,3-c]quinolin-8-yl)((3S)-3-(4-(trifluoromethyl)phenyl)-4-morpholinyl)methanone] | 0.269 | 8.11 |  | 
Nc1nc2cnc(C(=O)N3CCOC[C@@H]3c3ccc(C(F)(F)F)cc3)cc2c2c1CCO2 [Example 404, (4-amino-2,3-dihydrofuro[3,2-c][1,7]naphthyridin-8-yl)((3S)-3-(4-(trifluoromethyl)phenyl)-4-morpholinyl)methanone] | 0.872 | 9.76 |  | 
Cn1ncc2c(N)nc3cc(F)c(C(=O)N4CCOC[C@H]4c4ccc(C(F)(F)F)cn4)cc3c21 [Example 559, (4-amino-7-fluoro-1-methyl-1H-pyrazolo[4,3-c]quinolin-8-yl)((3R)-3-(5-(trifluoromethyl)-2-pyridinyl)-4-morpholinyl)methanone] | 0.575 | 12 |  | 
CC(=O)N1CCN(C(=O)c2cc3c4c(c(N)nc3cn2)COC4)[C@@H](c2ccc(C(F)(F)F)cc2)C1 [Example 624, (S)-1-(4-(4-Amino-1,3-dihydrofuro[3,4-c][1,7]naphthyridine-8-carbonyl)-3-(4-(trifluoromethyl)phenyl)piperazin-1-yl)ethan-1-one] | 0.343 | 8.57 |  | 
Cn1ncc2c(N)nc3cc(F)c(C(=O)N4CCOC[C@@H]4c4ccc(C(F)(F)F)cc4)cc3c21 [Example 420, (4-amino-7-fluoro-1-methyl-1H-pyrazolo[4,3-c]quinolin-8-yl)((3S)-3-(4-(trifluoromethyl)phenyl)-4-morpholinyl)methanone] | 0.012 | 0.338 |  | 
Nc1nc2cnc(C(=O)N3CCC(F)(F)C[C@H]3c3ccc(C(F)(F)F)cc3)cc2c2c1COC2 (single isomer, unassigned) [Example 599] | > 10 | > 10 |  | 
Cc1n[nH]c2c1c(N)nc1ccc(C(=O)N3CCOC[C@@H]3c3ccc(C(F)(F)F)cc3)cc12 [Example 405, (4-amino-3-methyl-1H-pyrazolo[4,3-d]quinolin-8-yl)((3S)-3-(4-(trifluoromethyl)phenyl)-4-morpholinyl)methanone] | 0.181 | 2.7 |  | 
Nc1nc2cnc(C(=O)N3CCOC[C@@H]3c3ccc(S(F)(F)(F)(F)F)cc3)cc2c2c1COC2 (single isomer, unassigned) [Example 458] | 0.018 | 0.454 |  | 
C[C@H]1OCc2c1c(N)nc1ccc(C(=O)N3CCOC[C@@H]3c3ccc(OC(F)(F)F)cc3)cc21 (single isomer, unassigned) [Example 568] | 0.036 | 1.79 |  | 

The remaining lines, values ahead:

IC50 ([1]; HCT116-MTAP null, 144 h) [µM] | IC50 ([2]; Homo sapiens, HCT-116, 144 h) [µM] | IC50 [1] [µM] | IC50 [2] [µM] | SMILES
0.086 | 4.69 |  |  | Cn1ncc2c3cc(C(=O)N4CCOC[C@@H]4c4ccc(C(F)(F)F)cc4)c(F)cc3nc(N)c21 [Example 518, (4-amino-7-fluoro-3-methyl-3H-pyrazolo[3,4-c]quinolin-8-yl)((3S)-3-(4-(trifluoromethyl)phenyl)-4-morpholinyl)methanone]
 |  | 0.193 | 7.25 | Nc1nc2cnc(C(=O)N3CCOCC3c3ccc(C(F)(F)F)cc3F)cc2c2c1COC2 (racemic) [Example 387, (4-amino-1,3-dihydrofuro[3,4-c][1,7]naphthyridin-8-yl)((3R)-3-(2-fluoro-4-(trifluoromethyl)phenyl)-4-morpholinyl)methanone and (4-amino-1,3-dihydrofuro[3,4-c][1,7]naphthyridin-8-yl)((3S)-3-(2-fluoro-4-(trifluoromethyl)phenyl)-4-morpholinyl)methanone]
0.037 | 1.11 |  |  | C[C@H]1OCc2c1c(N)nc1ccc(C(=O)N3[C@@H](C)COC[C@H]3c3ccc(OC(F)(F)F)cn3)cc21 (racemic) [Example 377, ((3R)-4-amino-3-methyl-1,3-dihydrofuro[3,4-c]quinolin-8-yl)((3R,5S)-3-methyl-5-(5-(trifluoromethoxy)-2-pyridinyl)-4-morpholinyl)methanone and ((3R)-4-amino-3-methyl-1,3-dihydrofuro[3,4-c]quinolin-8-yl)((3S,5R)-3-methyl-5-(5-(trifluoromethoxy)-2-pyridinyl)-4-morpholinyl)methanone]
1.83 | > 10 |  |  | Nc1nc2cnc(C(=O)N3CCOC[C@@H]3c3cnc(C(F)(F)F)cn3)cc2c2c1COC2 (single isomer, unassigned) [Example 613]
0.046 | 1.72 |  |  | C[C@H]1OCc2c1c(N)nc1cnc(C(=O)N3[C@@H](C)COC[C@H]3c3ccc(C(F)(F)F)nc3)cc21 (racemic) [Example 308, ((3R)-4-amino-3-methyl-1,3-dihydrofuro[3,4-c][1,7]naphthyridin-8-yl)((3R,5S)-3-methyl-5-(6-(trifluoromethyl)-3-pyridinyl)-4-morpholinyl)methanone and ((3R)-4-amino-3-methyl-1,3-dihydrofuro[3,4-c][1,7]naphthyridin-8-yl)((3S,5R)-3-methyl-5-(6-(trifluoromethyl)-3-pyridinyl)-4-morpholinyl)methanone]
0.819 | 11.6 |  |  | Nc1nc2ccc(C(=O)N3CCOC[C@@H]3c3ccc(C(F)(F)F)cc3)cc2c2cncnc12 [Example 502, (5-aminopyrimido[4,5-c]quinolin-9-yl)((3S)-3-(4-(trifluoromethyl)phenyl)-4-morpholinyl)methanone]
0.019 | 0.372 |  |  | C[C@@H]1COC[C@H](c2ccc(OC(F)(F)F)cc2)N1C(=O)c1cc2c3c(c(N)nc2cn1)COC3 [Example 525, (4-amino-1,3-dihydrofuro[3,4-c][1,7]naphthyridin-8-yl)((3R,5S)-3-methyl-5-(4-(trifluoromethoxy)phenyl)-4-morpholinyl)methanone]
> 10 | > 10 |  |  | CC(C)C[C@@H]1COC[C@H](c2ccc(C(F)(F)F)cc2)N1C(=O)c1cc2c3c(c(N)nc2cn1)COC3 (single isomer, unassigned) [Example 566]
0.03 | 2.02 |  |  | C[C@@H]1COC[C@H](c2ccc(C(F)(F)F)cn2)N1C(=O)c1ccc2nc(N)c3c(cnn3C)c2c1 [Example 370, (4-amino-3-methyl-3H-pyrazolo[3,4-c]quinolin-8-yl)((3R,5S)-3-methyl-5-(5-(trifluoromethyl)-2-pyridinyl)-4-morpholinyl)methanone]
 |  | 0.056 | 1.8 | CC(C)(C)OC(=O)N1CCN(C(=O)c2cc3c4c(c(N)nc3cn2)COC4)[C@H](c2ccc(C(F)(F)F)cc2)C1 (single isomer, unassigned) [Example 590]
0.257 | > 10 |  |  | C[C@H]1OCc2c1c(N)nc1cnc(C(=O)N3CCOC[C@H]3c3ccc(F)c(C(F)(F)F)c3)cc21 (racemic) [Example 356, ((3R)-4-amino-3-methyl-1,3-dihydrofuro[3,4-c][1,7]naphthyridin-8-yl)((3R)-3-(4-fluoro-3-(trifluoromethyl)phenyl)-4-morpholinyl)methanone and ((3R)-4-amino-3-methyl-1,3-dihydrofuro[3,4-c][1,7]naphthyridin-8-yl)((3S)-3-(4-fluoro-3-(trifluoromethyl)phenyl)-4-morpholinyl)methanone]
0.108 | 4.38 |  |  | COc1ccc([C@H]2COC[C@@H](C)N2C(=O)c2cc3c4c(c(N)nc3cn2)COC4)nn1 (relative stereo) [Example 491, (4-amino-1,3-dihydrofuro[3,4-c][1,7]naphthyridin-8-yl)((3S,5R)-3-(6-methoxypyridazin-3-yl)-5-methylmorpholino)methanone]
0.34 | 15.4 |  |  | Cn1ncc2c3cc(C(=O)N4CCOC[C@@H]4c4ccc(OC(F)F)cn4)ccc3nc(N)c21 [Example 369, (4-amino-3-methyl-3H-pyrazolo[3,4-c]quinolin-8-yl)((3S)-3-(5-(difluoromethoxy)-2-pyridinyl)-4-morpholinyl)methanone]
> 1 | > 10 |  |  | C[C@@H]1CN(C(=O)c2ccc3nc(N)c4c(c3c2)COC4)[C@@H](c2ccc(OC(F)(F)F)cc2)CO1 (single isomer, unassigned) [Example 585]
